Results as given in patent US9174948B2, “Desferrithiocin polyether analogues” (University of Florida Research Foundation, Inc., priority 2007, dated 2015).
Entries after “also recorded” stand apart in the source; their conditions may differ. Where two headings read alike, the source gives them in different places. Marks after values point to notes of the source that are not given here.

Key:
[1] = Chelator tissue distribution in rodents; assay type: in vivo, rat (male Sprague-Dawley); conditions: rats, sc, 300 μmol/kg
Procedure: Collection of Tissue Distribution Samples from Rodents: Male Sprague-Dawley rats (250-350 g) were given a single sc injection of the monosodium salts of 6 and 9 prepared as described above at a dose of 300 μmol/kg. At times 0.5, 1, 2, and 4 h after dosing (n=3 rats per time point) the animals were euthanized by exposure to CO2 gas. Blood was obtained via cardiac puncture into vacutainers containing sodium citrate. The blood was centrifuged, and the plasma was separated for analysis. The liver, heart, kidneys, and pancreas were then removed from the animals. […] J. Med. Chem. 2006, 49, 2772-2783]. In the current study, tissues from the (S)-3′-(HO)-DADFT-PE (9) and (S)-5′-(HO)-DADFT-PE (6) treated rats were prepared for HPLC analysis by homogenizing them in 0.5 N HClO4 at a ratio of 1:3 (w/v). Then, as a rinse, CH3OH at a ratio of 1:3 (w/v) was added and the mixture was stored at −20° C. for 30 min. This homogenate was centrifuged. The supernatant was diluted with mobile phase A (95% buffer [25 mM KH2PO4, pH 3.0]/5% CH3CN), vortexed, and filtered with a 0.2 μm membrane. Analytical separation was performed on a Discovery RP Amide C16 HPLC system with UV detection at 310 nm as described previously [Bergeron, R. J., Wiegand, J., Weimar, W. R., McManis, J. S., Smith, R. E. and Abboud, K. A. Iron Chelation Promoted by Desazadesferrithiocin Analogues: An Enantioselective Barrier. Chirality 2003, 15, 593-599; Bergeron, R. J., Wiegand, J., Ratliff-Thompson, K. and Weimar, W. R. The Origin of the Differences in (R)- and (S)-Desmethyldesferrithiocin: Iron-Clearing Properties. Ann. N.Y. Acad. Sci. 1998, 850, 202-216]. Mobile phase and chromatographic conditions were as follows: solvent A, 5% CH3CN/95% buffer; solvent B, 60% CH3CN/40% buffer. The concentrations were calculated from the peak area fitted to calibration curves by nonweighted least-squares linear regression with Rainin Dynamax HPLC Method Manager software (Rainin Instrument Co.).

[2] = test system: Non-Iron-Overloaded Rodents; conditions: po, cited from earlier work; for Iron-Clearing Efficiency (%): rats, 300 μmol/kg, historical data
[3] = biological target: Sudlow types I and II albumin binding sites (Rattus norvegicus, UniProt P02770); test: Ligand-albumin binding in bile duct-cannulated rodents treated with sodium benzoate; conditions: rats; for Iron-Clearing Efficiency (%): chelator 300 μmol/kg po plus sodium benzoate 250 mg/kg/dose sc × 6 doses; for fold increase in ICE with sodium benzoate: chelator 300 μmol/kg po, with vs without sodium benzoate
[4] = test system: Iron-Overloaded Cebus apella Primates; conditions: po, cited from earlier work; for Iron-Clearing Efficiency (%): Cebus apella, 150 μmol/kg, historical data
[5] = test system: kidney proximal and distal tubules; conditions: rats, po, 237 μmol/kg/dose twice daily (474 μmol/kg/day) for 7 days; cited from earlier work
[6] = earlier preclinical studies; cited from earlier work
[7] = test system: Non-Iron-Overloaded Rodents; test: Chelator-induced iron clearance in non-iron-overloaded, bile duct-cannulated rats; assay type: in vivo, rat (male Sprague-Dawley); conditions: po, 300 μmol/kg, 1 vs 3, 4 vs 6, 7 vs 9
Source text: Chelator-Induced Iron Clearance in Non-Iron-Overloaded Rodents. […] J. Med. Chem. 2006, 49, 2772-2783]. Recall that iron-clearing efficiency (ICE) is defined as (net iron excretion)/(total iron-binding capacity of the chelator), expressed as a percent. The relative ICE values of compounds 1 and 2 were in keeping with their log Papp values: the more lipophilic, the larger log Papp, the more efficient the chelator. […] However, the ICE trend was in keeping with the biliary ferrokinetics (FIG. 3) and liver concentration of the chelators, for example, 3>1 (FIG. 4).
Cannulation of Bile Duct in Non-Iron-Overloaded Rats has been described previously. […]. […] The urine sample(s) was taken at 24 h intervals. Sample collection and handling are as previously described [Bergeron, R. J., Streiff, R. R., Creary, E. A., Daniels, R. D., Jr., King, W., Luchetta, G., Wiegand, J., Moerker, T. and Peter, H. H. A Comparative Study of the Iron-Clearing Properties of Desferrithiocin Analogues with Desferrioxamine B in a Cebus Monkey Model. Blood 1993, 81, 2166-2173; Bergeron, R. J., Streiff, R. R., Wiegand, J., Vinson, J. R. T., Luchetta, G., Evans, K. M., Peter, H. and Jenny, H.-B. A Comparative Evaluation of Iron Clearance Models. Ann. N.Y. Acad. Sci. 1990, 612, 378-393].
In the iron-clearing experiments, the rats were given a single 300 μmol/kg dose of drugs 1-9 orally (po).
J. Med. Chem. 1999, 42, 2432-2440].

[8] = 2:1 complex with Fe(III); cited from earlier work
[9] = listed as (S)-4′-(HO)-DADFT (1)
[10] = listed as (S)-4′-(HO)-DADFT-PE (3)

Chain of Sudlow types I and II albumin binding sites (P02770 25-608): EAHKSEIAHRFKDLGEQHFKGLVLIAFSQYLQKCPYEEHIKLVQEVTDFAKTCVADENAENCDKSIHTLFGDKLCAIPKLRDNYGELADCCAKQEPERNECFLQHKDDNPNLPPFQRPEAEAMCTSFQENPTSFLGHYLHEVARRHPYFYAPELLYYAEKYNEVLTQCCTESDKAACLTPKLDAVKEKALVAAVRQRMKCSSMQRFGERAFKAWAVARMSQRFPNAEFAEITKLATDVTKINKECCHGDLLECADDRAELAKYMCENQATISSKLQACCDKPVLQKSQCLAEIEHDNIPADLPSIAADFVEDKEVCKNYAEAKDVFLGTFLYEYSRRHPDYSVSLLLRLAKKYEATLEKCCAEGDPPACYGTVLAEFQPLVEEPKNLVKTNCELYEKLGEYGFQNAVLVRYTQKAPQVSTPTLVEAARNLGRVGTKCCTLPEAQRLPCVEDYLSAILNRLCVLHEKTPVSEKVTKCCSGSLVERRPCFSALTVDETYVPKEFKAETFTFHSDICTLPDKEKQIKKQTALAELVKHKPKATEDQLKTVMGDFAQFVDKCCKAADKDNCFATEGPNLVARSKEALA

| kidney concentration ([1]; 0.5 h) [nmol/g wet weight] | kidney concentration ([1]; 1 h) [nmol/g wet weight] | kidney concentration ([1]; 4 h) [nmol/g wet weight] | Iron-Clearing Efficiency (%) [3] [%] | fold increase in ICE with sodium benzoate [3] [fold] | SMILES | Iron-Clearing Efficiency (%) [2] [%] | Iron-Clearing Efficiency (%) [4] [%] | distal tubules under light microscopy [5] | proximal tubules under light microscopy [5] | toxicity / nephrotoxicity in words [6] | further results |
| --- | --- | --- | --- | --- | --- | --- | --- | --- | --- | --- | --- |
| 361±56 | 179±4 | 27±7 | 12.0±2.6 | 10.9 | C[C@]1(C(=O)O)CSC(c2ccc(O)cc2O)=N1 [Compound 1, (S)-2-(2,4-dihydroxyphenyl)-4,5-dihydro-4-methyl-4-thiazolecarboxylic acid] | 1.1±0.8 | 16.8±7.2 | moderate to severe vacuolization | regional, moderate to severe vacuolization in the proximal tubules, a loss of the brush border, and tubular extrusions toward the lumen | no geno- or reproductive toxicity and only mild nephrotoxicity at high doses | pancreas concentration ([1]; 4 h): undetectable; Iron-Clearing Efficiency (%) [2, 9]: 1.1 ± 0.8%; Iron-Clearing Efficiency (%) [3, 9]: 12.0 ± 2.6^b % |
| 368±74 | 252±10 | 34±13 | 8.8±2.4 | 1.6 | COCCOCCOCCOc1ccc(C2=N[C@@](C)(C(=O)O)CS2)c(O)c1 [Compound 3, (S)-4,5-dihydro-2-[2-hydroxy-4-(3,6,9-trioxadecyloxy)phenyl]-4-methyl-4-thiazolecarboxylic acid] | 5.5±1.9 | 25.4±7.4 | occasional vacuolization but were otherwise normal | indistinguishable from those of the control animals | profoundly reduced nephrotoxicity; also recorded: profoundly less nephrotoxic | concentration at 0.5 h ([1]; male, Sprague-Dawley, rat, plasma, 0.5 h): 194 ± 60 µM; decrease of liver concentration from 0.5 h to 1 h [1]: 6%; liver concentration ([1]; 0.5 h): 339±35 nmol/g wet weight; drop in plasma concentration relative to 0.5 h ([1]; 1 h): 28%; drop in plasma concentration relative to 0.5 h ([1]; 2 h): 92%; kidney concentration ([1]; 2 h): 41±3 nmol/g wet weight; pancreas concentration ([1]; 2 h): ≈ 30 nmol/g wet weight; drop in plasma concentration relative to 0.5 h ([1]; 4 h): 97%; Iron-Clearing Efficiency (%) [2, 10]: 5.5 ± 1.9%; Iron-Clearing Efficiency (%) [3, 10]: 8.8 ± 2.4^c %; ICE of the polyether relative to that of the parent ligand [7]: 500% |
| – | – | – | – | – | C[C@]1(C(=O)O)CSC(c2ncccc2O)=N1 [DFT, (S)-4,5-dihydro-2-(3-hydroxy-2-pyridinyl)-4-methyl-4-thiazolecarboxylic acid, reference compound] | – | – | – | – | severely nephrotoxic | ICE ([2]; bile duct-cannulated rodent model): 5.5%; ICE ([4]; iron-overloaded Cebus apella primate): 16%; cumulative formation constant [8]: 4e+29 M⁻¹ |
